The values below are quoted from earlier work in patent US20040053963A1, “Urotensin-II receptor antagonists” (priority 2003, published 2004).

For this data set, the system named is rat-isolated aorta. The note with it: Ames et. al. Nature 1999, 401, 282.

On to `CC(C)[C@H](NC(=O)[C@@H]1CSSC[C@H](NC(=O)[C@H](CC(=O)O)NC(=O)[C@@H]2CCCN2C(=O)[C@@H](NC(=O)[C@@H](N)CCC(=O)O)[C@@H](C)O)C(=O)N[C@@H](Cc2ccccc2)C(=O)N[C@@H](Cc2c[nH]c3ccccc23)C(=O)N[C@@H](CCCCN)C(=O)N[C@@H](Cc2ccc(O)cc2)C(=O)N1)C(=O)O` [Human Urotensin-II], for which the contractile activity entry was “most potent contractile agonist identified to date”.
